Like-named read-outs stand apart in the source and are kept apart here.
Key:
EGFR wildtype (WT) = EGFR wildtype (WT) (Homo sapiens, UniProt P00533); test: Biochemical EGFR kinase assay (Lance Ultra TR-FRET), wildtype
Experimental: (§1) Biochemical EGFR kinase assays were conducted using Lance Ultra time-resolved fluorescence resonance energy transfer (TR-FRET) technology from Perkin-Elmer. Compounds of the invention were initially diluted to 20 mM in 100% DMSO for storage and made into kinase buffer solution to create a compound concentration ranging from 0.003 μM and 10 μM.
(§2) Each kinase reactions were incubated at room temperature for 1 hour and then stopped by the addition of 4 μL of stop solution (10 mM EDTA). The specific Europium-labeled-anti-phosphopeptide antibody (PerkinElmer, AD0069) diluted in LANCE detection buffer was then added to a final concentration of 2 nM. After 60 minutes incubation at room temperature the LANCE signal was measured on an EnVision Multilabel Reader (Perkin-Elmer). Excitation wavelength was set at 320 nm and emission monitored at 615 nm (donor) and 665 nm (acceptor). The IC50 values were determined using GraphPad prism software (GraphPad Software, Inc., San Diego, CA, USA).

EGFR del19/C797S = EGFR del19/C797S (Homo sapiens, UniProt P00533, C797S/DEL746-750); test: Biochemical EGFR kinase assay (Lance Ultra TR-FRET), del19/C797S
Experimental: as §1, §2

EGFR L858R/T790M/C797S = EGFR L858R/T790M/C797S (Homo sapiens, UniProt P00533, C797S/L858R/T790M); test: Biochemical EGFR kinase assay (Lance Ultra TR-FRET), L858R/T790M/C797S
Experimental: as §1, §2

EGFR del19/T790M/C797S = EGFR del19/T790M/C797S (Homo sapiens, UniProt P00533, C797S/DEL746-750/T790M); test: Biochemical EGFR kinase assay (Lance Ultra TR-FRET), del19/T790M/C797S
Experimental: as §1, §2

EGFR L858R/C797S = EGFR L858R/C797S (Homo sapiens, UniProt P00533, C797S/L858R); test: Biochemical EGFR kinase assay (Lance Ultra TR-FRET), L858R/C797S
Experimental: as §1, §2

[1] = IC50 WT (nM) 100 μM ATP, 100 μM ATP
[2] = Km ATP, read-out: IC50 WT (nM) Km ATP
[3] = IC50 del19/C797S (nM) 100 μM ATP, 100 μM ATP
[4] = Km ATP, read-out: IC50 del19/C797S (nM) Km ATP
[5] = IC50 L858R/T790M/C797S (nM) 100 μM ATP, 100 μM ATP
[6] = Km ATP, read-out: IC50 L858R/T790M/C797S (nM) Km ATP
[7] = IC50 del19/T790M/C797S (nM) 100 μM ATP, 100 μM ATP
[8] = Km ATP, read-out: IC50 del19/T790M/C797S (nM) Km ATP
[9] = IC50 L858R/C797S (nM) 100 μM ATP, 100 μM ATP
[10] = Km ATP, read-out: IC50 L858R/C797S (nM) Km ATP

EGFR L858R/T790M/C797S, sequence (P00533 25-1210 T790M/C797S/L858R): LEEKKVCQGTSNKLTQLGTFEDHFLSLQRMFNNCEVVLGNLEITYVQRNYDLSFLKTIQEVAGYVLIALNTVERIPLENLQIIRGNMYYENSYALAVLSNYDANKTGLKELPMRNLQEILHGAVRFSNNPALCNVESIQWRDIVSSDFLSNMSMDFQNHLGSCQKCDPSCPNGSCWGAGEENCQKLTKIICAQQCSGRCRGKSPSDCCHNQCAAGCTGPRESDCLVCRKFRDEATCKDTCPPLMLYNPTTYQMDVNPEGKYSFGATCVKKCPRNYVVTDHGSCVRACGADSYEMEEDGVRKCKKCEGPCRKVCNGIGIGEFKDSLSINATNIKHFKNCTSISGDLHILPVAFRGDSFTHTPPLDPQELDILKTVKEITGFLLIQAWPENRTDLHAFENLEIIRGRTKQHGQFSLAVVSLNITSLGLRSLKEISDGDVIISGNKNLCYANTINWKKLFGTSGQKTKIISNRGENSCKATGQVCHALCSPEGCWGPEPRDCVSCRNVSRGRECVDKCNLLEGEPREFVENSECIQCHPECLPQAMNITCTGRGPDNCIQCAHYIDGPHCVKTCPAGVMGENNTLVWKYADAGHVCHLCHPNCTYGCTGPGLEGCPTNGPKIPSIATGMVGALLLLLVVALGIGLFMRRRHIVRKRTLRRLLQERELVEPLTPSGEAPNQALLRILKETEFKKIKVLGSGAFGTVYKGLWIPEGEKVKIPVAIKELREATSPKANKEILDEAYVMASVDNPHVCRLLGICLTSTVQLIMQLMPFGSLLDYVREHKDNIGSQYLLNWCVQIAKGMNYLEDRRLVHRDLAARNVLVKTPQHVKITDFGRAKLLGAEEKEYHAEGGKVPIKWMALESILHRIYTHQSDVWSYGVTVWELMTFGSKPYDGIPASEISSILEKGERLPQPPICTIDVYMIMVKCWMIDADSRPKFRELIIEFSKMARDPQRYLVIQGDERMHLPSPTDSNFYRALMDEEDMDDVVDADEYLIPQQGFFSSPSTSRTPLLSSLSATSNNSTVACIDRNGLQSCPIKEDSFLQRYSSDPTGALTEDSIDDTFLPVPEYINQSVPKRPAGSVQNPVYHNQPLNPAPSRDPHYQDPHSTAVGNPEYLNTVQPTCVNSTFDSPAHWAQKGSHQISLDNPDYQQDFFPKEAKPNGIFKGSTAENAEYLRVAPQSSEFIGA
EGFR wildtype (WT), sequence (P00533 25-1210): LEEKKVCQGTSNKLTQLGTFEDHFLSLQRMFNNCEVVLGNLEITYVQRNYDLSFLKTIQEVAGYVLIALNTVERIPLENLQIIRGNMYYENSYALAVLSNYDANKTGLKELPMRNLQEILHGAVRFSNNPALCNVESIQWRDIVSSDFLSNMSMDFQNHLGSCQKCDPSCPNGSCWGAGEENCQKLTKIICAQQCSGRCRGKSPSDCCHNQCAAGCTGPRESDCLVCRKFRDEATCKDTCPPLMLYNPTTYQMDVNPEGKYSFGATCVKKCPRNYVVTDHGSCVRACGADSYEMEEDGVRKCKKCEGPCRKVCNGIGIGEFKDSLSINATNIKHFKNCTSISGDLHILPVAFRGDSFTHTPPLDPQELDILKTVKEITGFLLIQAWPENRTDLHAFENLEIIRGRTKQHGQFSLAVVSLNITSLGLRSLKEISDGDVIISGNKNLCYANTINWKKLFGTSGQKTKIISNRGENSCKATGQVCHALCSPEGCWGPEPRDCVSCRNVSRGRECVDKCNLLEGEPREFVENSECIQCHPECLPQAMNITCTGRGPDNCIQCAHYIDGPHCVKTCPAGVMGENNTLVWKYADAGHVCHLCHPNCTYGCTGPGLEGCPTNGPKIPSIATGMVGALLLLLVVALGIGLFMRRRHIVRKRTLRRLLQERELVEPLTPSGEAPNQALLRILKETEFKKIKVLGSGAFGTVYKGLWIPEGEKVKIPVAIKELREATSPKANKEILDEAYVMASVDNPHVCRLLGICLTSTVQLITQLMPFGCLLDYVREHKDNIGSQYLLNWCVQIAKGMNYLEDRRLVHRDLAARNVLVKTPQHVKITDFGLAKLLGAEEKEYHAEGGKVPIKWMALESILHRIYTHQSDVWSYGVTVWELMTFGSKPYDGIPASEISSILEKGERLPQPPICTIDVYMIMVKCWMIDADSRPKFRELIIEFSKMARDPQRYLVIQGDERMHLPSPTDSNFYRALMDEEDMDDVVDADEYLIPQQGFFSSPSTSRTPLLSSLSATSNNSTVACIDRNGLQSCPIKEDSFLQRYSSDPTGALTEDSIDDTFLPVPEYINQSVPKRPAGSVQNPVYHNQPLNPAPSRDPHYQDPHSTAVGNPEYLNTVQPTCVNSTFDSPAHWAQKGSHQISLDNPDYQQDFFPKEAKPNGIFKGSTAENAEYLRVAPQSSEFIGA
EGFR del19/C797S, sequence (P00533 with tags, fused parts or gaps DEL746-750/C797S): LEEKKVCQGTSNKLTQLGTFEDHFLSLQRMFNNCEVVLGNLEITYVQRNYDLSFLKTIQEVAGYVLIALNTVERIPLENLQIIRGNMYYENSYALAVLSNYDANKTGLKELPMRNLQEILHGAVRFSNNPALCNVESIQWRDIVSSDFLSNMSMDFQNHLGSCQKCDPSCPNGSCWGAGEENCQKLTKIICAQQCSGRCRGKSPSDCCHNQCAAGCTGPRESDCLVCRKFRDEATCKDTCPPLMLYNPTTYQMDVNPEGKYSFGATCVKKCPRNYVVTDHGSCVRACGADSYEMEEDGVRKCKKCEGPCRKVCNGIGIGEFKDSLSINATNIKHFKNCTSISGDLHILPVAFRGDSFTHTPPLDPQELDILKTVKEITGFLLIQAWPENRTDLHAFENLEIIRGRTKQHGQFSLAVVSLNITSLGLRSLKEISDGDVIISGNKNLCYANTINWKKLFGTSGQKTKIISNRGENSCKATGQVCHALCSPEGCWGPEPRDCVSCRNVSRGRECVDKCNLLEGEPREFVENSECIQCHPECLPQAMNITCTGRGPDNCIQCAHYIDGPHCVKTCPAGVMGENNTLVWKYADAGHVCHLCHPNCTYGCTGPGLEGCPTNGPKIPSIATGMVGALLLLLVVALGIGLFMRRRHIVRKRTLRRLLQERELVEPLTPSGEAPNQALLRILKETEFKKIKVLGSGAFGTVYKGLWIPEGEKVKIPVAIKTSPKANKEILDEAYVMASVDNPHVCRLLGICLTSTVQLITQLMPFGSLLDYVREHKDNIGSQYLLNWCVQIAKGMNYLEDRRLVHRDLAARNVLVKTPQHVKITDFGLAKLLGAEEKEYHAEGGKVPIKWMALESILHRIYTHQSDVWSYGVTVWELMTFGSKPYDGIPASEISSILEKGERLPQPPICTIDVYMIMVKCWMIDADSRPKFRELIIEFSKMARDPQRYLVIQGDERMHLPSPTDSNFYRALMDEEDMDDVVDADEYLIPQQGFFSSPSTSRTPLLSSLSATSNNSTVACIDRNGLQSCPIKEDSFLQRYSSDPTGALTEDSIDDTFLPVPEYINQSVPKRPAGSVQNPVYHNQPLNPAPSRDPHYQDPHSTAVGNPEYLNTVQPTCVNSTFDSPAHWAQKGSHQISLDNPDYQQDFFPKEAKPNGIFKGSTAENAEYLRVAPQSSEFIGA
EGFR del19/T790M/C797S, sequence (P00533 with tags, fused parts or gaps DEL746-750/T790M/C797S): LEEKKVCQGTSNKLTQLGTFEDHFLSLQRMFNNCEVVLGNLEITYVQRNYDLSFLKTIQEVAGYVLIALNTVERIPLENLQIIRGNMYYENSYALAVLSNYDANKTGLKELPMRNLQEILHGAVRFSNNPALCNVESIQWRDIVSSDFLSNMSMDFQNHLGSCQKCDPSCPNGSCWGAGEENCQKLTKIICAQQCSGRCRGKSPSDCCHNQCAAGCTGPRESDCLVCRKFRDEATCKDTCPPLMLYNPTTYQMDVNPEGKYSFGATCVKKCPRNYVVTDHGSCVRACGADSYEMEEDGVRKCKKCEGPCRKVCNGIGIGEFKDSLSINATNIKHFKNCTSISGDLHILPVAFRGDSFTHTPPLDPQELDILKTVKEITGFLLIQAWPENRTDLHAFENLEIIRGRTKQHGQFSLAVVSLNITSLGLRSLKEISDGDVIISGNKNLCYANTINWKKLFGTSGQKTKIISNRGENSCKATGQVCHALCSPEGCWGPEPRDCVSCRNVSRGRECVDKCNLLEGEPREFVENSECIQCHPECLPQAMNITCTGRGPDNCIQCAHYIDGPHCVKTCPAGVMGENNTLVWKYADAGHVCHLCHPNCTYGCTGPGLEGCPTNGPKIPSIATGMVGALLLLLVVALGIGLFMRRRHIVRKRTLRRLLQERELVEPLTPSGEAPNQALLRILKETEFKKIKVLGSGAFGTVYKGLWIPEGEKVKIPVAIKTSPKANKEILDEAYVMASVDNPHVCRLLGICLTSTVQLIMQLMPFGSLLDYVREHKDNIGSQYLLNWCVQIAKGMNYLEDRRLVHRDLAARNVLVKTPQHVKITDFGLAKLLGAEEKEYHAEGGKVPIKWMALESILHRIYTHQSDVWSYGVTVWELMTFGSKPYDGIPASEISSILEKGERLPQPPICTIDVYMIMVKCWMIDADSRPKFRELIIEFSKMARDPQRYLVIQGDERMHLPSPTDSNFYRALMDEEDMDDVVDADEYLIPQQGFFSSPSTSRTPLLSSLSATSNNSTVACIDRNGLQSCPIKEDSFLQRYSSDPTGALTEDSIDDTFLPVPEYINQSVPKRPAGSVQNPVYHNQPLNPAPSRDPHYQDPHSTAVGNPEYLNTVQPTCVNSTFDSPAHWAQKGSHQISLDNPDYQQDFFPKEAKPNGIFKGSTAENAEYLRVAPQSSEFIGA

CNC[C@H]1CC[C@H](CNc2cc(Nc3ccnc(-c4cnn(S(=O)(=O)C5CC5)c4)n3)ncc2C(=O)C2CC2)CC1 [Example 89, Cyclopropyl(6-((2-(1-(cyclopropylsulfonyl)-1H-pyrazol-4-yl)pyrimidin-4-yl)amino)-4-((((1r,4r)-4-((methylamino)methyl)cyclohexyl)methyl)amino)pyridin-3-yl)methanone]
IC50 (EGFR wildtype (WT); [1]): 532 nM
IC50 (EGFR wildtype (WT); [2]): 4.9 nM
IC50 (EGFR del19/C797S; [3]): 0.8 nM
IC50 (EGFR del19/C797S; [4]): 0.5 nM
IC50 (EGFR L858R/T790M/C797S; [5]): 0.1 nM
IC50 (EGFR L858R/T790M/C797S; [6]): 0.1 nM
IC50 (EGFR del19/T790M/C797S; [7]): 0.2 nM
IC50 (EGFR del19/T790M/C797S; [8]): 0.2 nM
IC50 (EGFR L858R/C797S; [9]): 7.9 nM
IC50 (EGFR L858R/C797S; [10]): 0.7 nM

C[C@]1(O)CC[C@@H](Nc2cc(Nc3ccnc(-c4cnn(S(=O)(=O)C5CC5)c4)n3)ncc2C(=O)C(F)F)CC1 [Example 48, 1-(6-((2-(1-(Cyclopropylsulfonyl)-1H-pyrazol-4-yl)pyrimidin-4-yl)amino)-4-(((1s,4s)-4-hydroxy-4-methylcyclohexyl)amino)pyridin-3-yl)-2,2-difluoroethan-1-one]
IC50 (EGFR wildtype (WT); [1]): > 10000 nM
IC50 (EGFR wildtype (WT); [2]): 553 nM
IC50 (EGFR del19/C797S; [3]): 4.4 nM
IC50 (EGFR del19/C797S; [4]): 15.7 nM
IC50 (EGFR L858R/T790M/C797S; [5]): 2.4 nM
IC50 (EGFR L858R/T790M/C797S; [6]): 0.5 nM
IC50 (EGFR del19/T790M/C797S; [7]): 1 nM
IC50 (EGFR del19/T790M/C797S; [8]): 0.8 nM
IC50 (EGFR L858R/C797S; [9]): 110 nM
IC50 (EGFR L858R/C797S; [10]): 26.2 nM

O=C(c1cnc(Nc2ccnc(-c3cnn(S(=O)(=O)C4CC4)c3)n2)cc1N[C@H]1CC[C@](O)(CO)CC1)C1CC1 [Example 86, Cyclopropyl(6-((2-(1-(cyclopropylsulfonyl)-1H-pyrazol-4-yl)pyrimidin-4-yl)amino)-4-(((1s,4s)-4-hydroxy-(4-hydroxymethyl)cyclohexyl)amino)pyridin-3-yl)methanone]
IC50 (EGFR wildtype (WT); [1]): > 10000 nM
IC50 (EGFR wildtype (WT); [2]): 47.6 nM
IC50 (EGFR del19/C797S; [3]): 2.9 nM
IC50 (EGFR del19/C797S; [4]): 1.9 nM
IC50 (EGFR L858R/T790M/C797S; [5]): 0.3 nM
IC50 (EGFR L858R/T790M/C797S; [6]): 0.1 nM
IC50 (EGFR del19/T790M/C797S; [7]): 0.2 nM
IC50 (EGFR del19/T790M/C797S; [8]): 0.2 nM
IC50 (EGFR L858R/C797S; [9]): 52.9 nM
IC50 (EGFR L858R/C797S; [10]): 4.3 nM

O=C(c1cnc(Nc2ccnc(-c3cnn(S(=O)(=O)C4CC4)c3)n2)cc1NC[C@H]1CC[C@H](Cn2ccnc2)CC1)C1CC1 [Example 43, (4-((((1r,4r)-4-((1H-Imidazol-1-yl)methyl)cyclohexyl)methyl)amino)-6-((2-(1-(cyclopropylsulfonyl)-1H-pyrazol-4-yl)pyrimidin-4-yl)amino)pyridin-3-yl)(cyclopropyl)methanone]
IC50 (EGFR wildtype (WT); [2]): 64.1 nM
IC50 (EGFR del19/C797S; [4]): 10.5 nM
IC50 (EGFR L858R/T790M/C797S; [6]): 0.5 nM
IC50 (EGFR del19/T790M/C797S; [8]): 1.3 nM
IC50 (EGFR L858R/C797S; [10]): 24 nM

C[C@@H](CCO)Nc1cc(Nc2ccnc(-c3cnn(S(=O)(=O)C4CC4)c3)n2)ncc1C(=O)C1CC1 [Example 8, (S)-Cyclopropyl(6-((2-(1-(cyclopropylsulfonyl)-1H-pyrazol-4-yl)pyrimidin-4-yl)amino)-4-((4-hydroxybutan-2-yl)amino)pyridin-3-yl)methanone]
IC50 (EGFR wildtype (WT); [2]): 471 nM
IC50 (EGFR del19/C797S; [4]): 61.6 nM
IC50 (EGFR L858R/T790M/C797S; [6]): 1.4 nM
IC50 (EGFR del19/T790M/C797S; [8]): 0.4 nM
IC50 (EGFR L858R/C797S; [10]): 292 nM

O=C(c1cnc(Nc2ccnc(-c3cnn(S(=O)(=O)C4CC4)c3)n2)cc1N[C@H]1CC[C@@H](CO)CC1)C(F)F [Example 49, 1-(6-((2-(1-(Cyclopropylsulfonyl)-1H-pyrazol-4-yl)pyrimidin-4-yl)amino)-4-(((1s,4s)-4-(hydroxymethyl)cyclohexyl)amino)pyridin-3-yl)-2,2-difluoroethan-1-one]
IC50 (EGFR wildtype (WT); [1]): > 10000 nM
IC50 (EGFR wildtype (WT); [2]): 181 nM
IC50 (EGFR del19/C797S; [3]): 1.2 nM
IC50 (EGFR del19/C797S; [4]): 2.6 nM
IC50 (EGFR L858R/T790M/C797S; [5]): 0.7 nM
IC50 (EGFR L858R/T790M/C797S; [6]): 0.2 nM
IC50 (EGFR del19/T790M/C797S; [7]): 0.4 nM
IC50 (EGFR del19/T790M/C797S; [8]): 0.4 nM
IC50 (EGFR L858R/C797S; [9]): 21.1 nM
IC50 (EGFR L858R/C797S; [10]): 4 nM

CN(C)C1CCN(CCNC2CCC(Nc3cc(Nc4ccnc(-c5cnn(S(=O)(=O)C6CC6)c5)n4)ncc3C(=O)C3CC3)CC2)CC1 (stereo not shown) [Example 57, Cyclopropyl(6-((2-(1-(cyclopropylsulfonyl)-1H-pyrazol-4-yl)pyrimidin-4-yl)amino)-4-((4-((2-(4-(dimethylamino)piperidin-1-yl)ethyl)amino)cyclohexyl)amino)pyridin-3-yl)methanone]
IC50 (EGFR wildtype (WT); [1]): > 10000 nM
IC50 (EGFR del19/C797S; [3]): 18 nM
IC50 (EGFR L858R/T790M/C797S; [5]): 1 nM
IC50 (EGFR del19/T790M/C797S; [7]): 0.6 nM
IC50 (EGFR L858R/C797S; [9]): 10.7 nM

O=C(c1cnc(Nc2ccnc(-c3cnn(S(=O)(=O)C4CC4)c3)n2)cc1NCCCO)C1CC1 [Example 9, Cyclopropyl(6-((2-(1-(cyclopropylsulfonyl)-1H-pyrazol-4-yl)pyrimidin-4-yl)amino)-4-((3-hydroxypropyl)amino)pyridin-3-yl)methanone]
IC50 (EGFR wildtype (WT); [2]): 528 nM
IC50 (EGFR del19/C797S; [4]): 70.7 nM
IC50 (EGFR L858R/T790M/C797S; [6]): 2.5 nM
IC50 (EGFR del19/T790M/C797S; [8]): 0.7 nM
IC50 (EGFR L858R/C797S; [10]): 479 nM

CN[C@H]1CC[C@@H](Nc2cc(Nc3ccnc(-c4cnn(S(=O)(=O)C5CC5)c4)n3)ncc2C(=O)C2CC2)CC1 [Example 32, Cyclopropyl-(6-((2-(1-(cyclopropylsulfonyl)-1H-pyrazol-4-yl)pyrimidin-4-yl)amino)-4-(((1s,4s)-4-(methylamino)cyclohexyl)amino)pyridin-3-yl)methanone]
IC50 (EGFR wildtype (WT); [1]): > 10000 nM
IC50 (EGFR del19/C797S; [3]): 51.1 nM
IC50 (EGFR L858R/T790M/C797S; [5]): 2 nM
IC50 (EGFR del19/T790M/C797S; [7]): 1.2 nM
IC50 (EGFR L858R/C797S; [9]): 54.7 nM

CC(=O)c1cnc(Nc2ccnc(-c3cnn(S(=O)(=O)C4CC4)c3)n2)cc1NC(C)(C)C(C)O (stereo not shown) [Example 46, 1-(6-((2-(1-(Cyclopropylsulfonyl)-1H-pyrazol-4-yl)pyrimidin-4-yl)amino)-4-((3-hydroxy-2-methylbutan-2-yl)amino)pyridin-3-yl)ethan-1-one]
IC50 (EGFR wildtype (WT); [2]): 1410 nM
IC50 (EGFR del19/C797S; [4]): 290 nM
IC50 (EGFR L858R/T790M/C797S; [6]): 7.3 nM
IC50 (EGFR del19/T790M/C797S; [8]): 0.6 nM
IC50 (EGFR L858R/C797S; [10]): 471 nM

CC1(CO)CCN(c2cc(Nc3ccnc(-c4cnn(S(=O)(=O)C5CC5)c4)n3)ncc2F)CC1 [Example 85, (1-(2-((2-(1-(Cyclopropylsulfonyl)-1H-pyrazol-4-yl)pyrimidin-4-yl)amino)-5-fluoropyridin-4-yl)-4-methylpiperidin-4-yl)methanol]
IC50 (EGFR wildtype (WT); [1]): > 10000 nM
IC50 (EGFR del19/C797S; [3]): 146 nM
IC50 (EGFR L858R/T790M/C797S; [5]): 21.5 nM
IC50 (EGFR del19/T790M/C797S; [7]): 9.4 nM
IC50 (EGFR L858R/C797S; [9]): 903 nM

CC(C)(O)[C@H]1CC[C@@H](Nc2cc(Nc3ccnc(-c4cnn(S(=O)(=O)C5CC5)c4)n3)ncc2C(=O)C(F)F)CC1 [Example 50, 1-(6-((2-(1-(Cyclopropylsulfonyl)-1H-pyrazol-4-yl)pyrimidin-4-yl)amino)-4-(((1s,4s)-4-(2-hydroxypropan-2-yl)cyclohexyl)amino)pyridin-3-yl)-2,2-difluoroethan-1-one]
IC50 (EGFR wildtype (WT); [1]): > 10000 nM
IC50 (EGFR wildtype (WT); [2]): 1170 nM
IC50 (EGFR del19/C797S; [3]): 8.8 nM
IC50 (EGFR del19/C797S; [4]): 17.2 nM
IC50 (EGFR L858R/T790M/C797S; [5]): 6.9 nM
IC50 (EGFR L858R/T790M/C797S; [6]): 1.1 nM
IC50 (EGFR L858R/C797S; [9]): 157 nM
IC50 (EGFR L858R/C797S; [10]): 42.8 nM

CN(C)C[C@H]1CC[C@H](CNc2cc(Nc3ccnc(-c4cnn(C5CC5)c4)n3)ncc2C(=O)C2CC2)CC1 [Example 60, Cyclopropyl(6-((2-(1-cyclopropyl-1H-pyrazol-4-yl)pyrimidin-4-yl)amino)-4-((((1r,4r)-4-((dimethylamino)methyl)cyclohexyl)methyl)amino)pyridin-3-yl)methanone]
IC50 (EGFR wildtype (WT); [2]): 430 nM
IC50 (EGFR L858R/T790M/C797S; [6]): 3.5 nM
IC50 (EGFR del19/T790M/C797S; [8]): 5.4 nM
IC50 (EGFR L858R/C797S; [10]): 115 nM

CC(C)Nc1cc(Nc2ccnc(-c3cnn(S(=O)(=O)C4CC4)c3)n2)ncc1F [Example 41, N^2-(2-(1-(Cyclopropylsulfonyl)-1H-pyrazol-4-yl)pyrimidin-4-yl)-5-fluoro-N^4-isopropylpyridine-2,4-diamine]
IC50 (EGFR wildtype (WT); [2]): 145 nM
IC50 (EGFR del19/C797S; [4]): 47.7 nM
IC50 (EGFR L858R/T790M/C797S; [6]): 5.6 nM
IC50 (EGFR L858R/C797S; [10]): 444 nM
